# Reference: patent US6610710B2, “Phenylalanine derivatives” (Ajinomoto Co., Inc., priority 1999, dated 2003)
# Molecular target: T1, integrin α4β7 (RPMI-8866 cells) binding with recombinant human VCAM-1 (Homo sapiens, UniProt P13612+P26010)
# T1 construct: lymphoma cell strain RPMI-8866 of human B cells, known to express integrin α4β7; endogenous in cells; host or cells: RPMI-8866 (human B-cell lymphoma line)
# T1 sequence (P13612 34-1032): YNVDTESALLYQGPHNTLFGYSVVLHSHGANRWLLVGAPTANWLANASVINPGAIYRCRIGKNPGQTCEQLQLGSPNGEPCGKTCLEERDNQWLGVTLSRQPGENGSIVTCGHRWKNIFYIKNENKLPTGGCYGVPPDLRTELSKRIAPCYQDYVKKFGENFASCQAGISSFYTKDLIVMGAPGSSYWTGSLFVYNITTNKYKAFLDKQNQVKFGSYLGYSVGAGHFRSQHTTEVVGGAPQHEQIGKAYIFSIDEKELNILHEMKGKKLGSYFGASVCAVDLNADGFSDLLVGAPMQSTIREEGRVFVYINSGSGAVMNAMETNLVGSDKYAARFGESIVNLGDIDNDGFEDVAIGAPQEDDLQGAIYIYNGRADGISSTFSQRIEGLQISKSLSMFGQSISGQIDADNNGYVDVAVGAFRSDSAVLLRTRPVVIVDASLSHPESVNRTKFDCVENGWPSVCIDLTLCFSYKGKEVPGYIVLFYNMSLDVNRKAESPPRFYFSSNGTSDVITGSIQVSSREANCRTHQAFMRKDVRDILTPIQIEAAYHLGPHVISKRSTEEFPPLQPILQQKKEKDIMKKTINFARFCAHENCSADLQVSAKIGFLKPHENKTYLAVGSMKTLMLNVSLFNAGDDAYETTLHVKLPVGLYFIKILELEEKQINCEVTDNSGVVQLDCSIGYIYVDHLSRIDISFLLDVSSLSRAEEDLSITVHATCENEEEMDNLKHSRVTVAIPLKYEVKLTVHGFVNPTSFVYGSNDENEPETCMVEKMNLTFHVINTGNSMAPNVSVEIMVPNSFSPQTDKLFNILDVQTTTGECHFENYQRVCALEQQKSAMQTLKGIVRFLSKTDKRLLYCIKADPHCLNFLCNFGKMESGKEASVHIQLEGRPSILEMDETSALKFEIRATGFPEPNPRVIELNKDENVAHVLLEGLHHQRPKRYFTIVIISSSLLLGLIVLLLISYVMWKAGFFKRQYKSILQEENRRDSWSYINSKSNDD
# T1 sequence (P26010 20-798): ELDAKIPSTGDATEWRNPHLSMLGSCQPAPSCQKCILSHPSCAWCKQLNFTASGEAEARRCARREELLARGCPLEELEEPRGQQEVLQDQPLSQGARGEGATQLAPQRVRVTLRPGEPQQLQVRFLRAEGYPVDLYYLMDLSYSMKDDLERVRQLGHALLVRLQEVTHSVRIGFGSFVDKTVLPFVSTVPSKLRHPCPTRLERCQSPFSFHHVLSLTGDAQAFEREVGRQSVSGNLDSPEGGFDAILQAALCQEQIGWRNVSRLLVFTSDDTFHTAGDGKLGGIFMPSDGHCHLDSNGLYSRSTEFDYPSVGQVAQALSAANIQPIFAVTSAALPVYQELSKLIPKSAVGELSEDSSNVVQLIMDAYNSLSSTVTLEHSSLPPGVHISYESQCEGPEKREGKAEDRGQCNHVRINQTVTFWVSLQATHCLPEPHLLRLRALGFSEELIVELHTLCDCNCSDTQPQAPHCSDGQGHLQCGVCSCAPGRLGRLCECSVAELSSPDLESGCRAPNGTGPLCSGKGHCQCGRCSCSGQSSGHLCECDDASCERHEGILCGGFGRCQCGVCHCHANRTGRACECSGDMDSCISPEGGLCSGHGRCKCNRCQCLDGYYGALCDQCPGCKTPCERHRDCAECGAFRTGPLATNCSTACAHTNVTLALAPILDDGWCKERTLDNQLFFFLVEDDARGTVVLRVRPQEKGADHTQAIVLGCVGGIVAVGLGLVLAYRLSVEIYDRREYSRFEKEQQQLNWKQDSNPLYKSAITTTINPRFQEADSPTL
# Experiment: VCAM antagonistic activity (VCAM-1/α4β7 binding assay), RPMI-8866 cell adhesion
# Format: cell-based
# Details: recombinant human VCAM-1, 4 mM MnCl2, read-out: VCAM/α 4 β 7 antagonistic activity to integrin (IC50)
# Experimental: (Test Example) VCAM Antagonistic Activity (VCAM-1/α4β7 Binding Assay):
# The capacity of a test substance antagonistic to the binding of lymphoma cell strain RPMI-8866 of human B cells, known to express integrin α4β7, with VCAM-1 was determined.
# 100 μl/well of a solution (500 ng/ml ) of recombinant human VCAM-1 (R & D systems) diluted with buffer A (0.1 M NaHCO3, pwH 9.6) was added to a micro titer plate having 96 wells (Nunc Maxisorp). After the incubation at 4° C. overnight, unbound VCAM-1 was removed by once washing with PBS. After completion of the washing, a buffer (buffer B) obtained by diluting Block Ace® (Dainippon Pharmaceutical Co., Ltd.) with PBS to 1/4 concentration was added in an amount of 150 μl/well. After the incubation at room temperature for 1 hour, buffer B was removed and the plate was washed with PBS once.
# RPMI-8866 cells were incubated in Dulbecco modified Eagle medium containing 10 μg/ml of Calcein-AM (Wako Pure Chemical Industries, Ltd.) (SIGMA, hereinafter referred to as “DMEM”) at 37° C. for 30 minutes to label them with fluorescence. The cells were again suspended in a binding buffer (DMEM containing 20 mM HEPES, 0.1% BSA) containing 4 mM of MnCl2.
# 50 μl of a test substance of various concentrations obtained by the dilution with the binding buffer was added to the plate. Immediately thereafter, 50 μl (final volume: 100 μl/well) of the fluorescent RPMI-8866 cells (4×10^6 cells/ml) were added thereto, and they were incubated at room temperature for 30 minutes. After the shaking on a plate shaker (IKA MTS-4) at 800 rpm for 30 seconds, the solution was immediately removed to remove the unbound cells. The fluorescence quantity of the bound cells remaining in the wells was determined with a fluorescent plate reader (Wallac 1420 ARVO multi-label counter) (filter excitation wave length: 485 nml, emission wave length: 535 nm). The fluorescent strength thus obtained is proportional to the number of RPMI-8866 cells bound to VCAM-1 and remaining on the plate. The binding rate of each test material in various concentrations was determined while the fluorescent strength of the test material-free well was determined to be 100%. The concentration IC50 for the 50% binding inhibition was calculated.
row,IC50 [nM],Compound
1,≤ 200,"O=C(O)[C@H](Cc1ccc(OCc2c(Cl)cccc2Cl)cc1)NC(=O)[C@H]1CC[C@H](C(=O)NNc2ccccc2)CC1 [Example 3, N-(Trans-4-phenylhydrazinocarbonylcyclohexane-1-carbonyl)-O-(2,6-dichlorobenzyl)-L-tyrosine]"
2,≤ 200,"COc1cccc(OC)c1-c1ccc(C[C@H](NC(=O)[C@H]2CC[C@H](C(=O)O)CC2)C(=O)O)cc1 [Example 50, N-(Trans-4-carboxycyclohexane-1-carbonyl)-4-(2,6-dimethoxyphenyl)-L-phenylalanine]"
3,≤ 200,Cc1ccc(NNC(=O)[C@H]2CC[C@H](C(=O)N[C@@H](Cc3ccc(OCc4c(Cl)cccc4Cl)cc3)C(=O)O)CC2)cc1 [Example 34]
4,200 to 1000,"O=C(O)[C@H](Cc1ccc(OCc2c(Cl)cccc2Cl)cc1)NC(=O)[C@H]1CC[C@H](C(=O)NNc2ccc(Br)cc2)CC1 [Example 4, N-[Trans-4-(4-bromophenylhydrazinocarbonyl)cyclohexane-1-carbonyl]-O-(2,6-dichlorobenzyl)-L-tyrosine]"
5,≤ 200,"COc1ccc(NNC(=O)[C@H]2CC[C@H](C(=O)N[C@@H](Cc3ccc(NC(=O)c4snnc4-c4ccccc4)cc3)C(=O)O)CC2)cc1 [Example 46, N-[Trans-4-(4-methoxyphenylhydrazinocarbonyl)cyclohexane-1-carbonyl]-4-{[(4-phenyl-1,2,3-thiadiazole-5-yl)carbonyl]amino}-L-phenyl-alanine]"
6,≤ 200,"COc1ccc(NNC(=O)[C@H]2CC[C@H](C(=O)N[C@@H](Cc3ccc(-c4c(OC)cccc4OC)cc3)C(=O)O)CC2)cc1 [Example 51, N-[Trans-4-(4-methoxyphenylhydrazinocarbonyl)cyclohexane-1-carbonyl]-4-(2,6-dimethoxyphenyl)-L-phenylalanine]"
7,≤ 200,COc1ccc(NNC(=O)[C@H]2CC[C@H](C(=O)N[C@@H](Cc3ccc(OCc4c(Cl)cccc4Cl)cc3)C(=O)O)CC2)cc1 [Example 14]
8,≤ 200,COc1cccc(NNC(=O)[C@H]2CC[C@H](C(=O)N[C@@H](Cc3ccc(OCc4c(Cl)cccc4Cl)cc3)C(=O)O)CC2)c1 [Example 44]
9,≤ 200,O=C(O)[C@H](Cc1ccc(OCc2c(Cl)cccc2Cl)cc1)NC(=O)[C@H]1CC[C@H](C(=O)NNc2ccc(OC(F)(F)F)cc2)CC1 [Example 35]
10,≤ 200,"O=C(Nc1ccc(C[C@H](NC(=O)[C@H]2CC[C@H](C(=O)O)CC2)C(=O)O)cc1)c1snnc1-c1ccccc1 [Example 45, N-(Trans-4-carboxycyclohexane-1-carbonyl)-4-{[(4-phenyl-1,2,3-thiadiazole-5-yl)carbonyl]amino}-L-phenylalanine]"
11,≤ 200,"O=C(O)[C@H](Cc1ccc(OCc2c(Cl)cccc2Cl)cc1)NC(=O)[C@H]1CC[C@H](C(=O)O)CC1 [Example 2, N-(Trans-4-carboxycyclohexane-1-carbonyl)-O-(2,6-dichlorobenzyl)-L-tyrosine]"
12,1000 to 5000,O=C(O)[C@H](Cc1ccc(OCc2c(Cl)cccc2Cl)cc1)NC(=O)[C@H]1CC[C@H](C(=O)NCc2ccccc2)CC1 [Example 6]
